Data published in paper PMC8398255, “Synthesis of 3,5-Bis(trifluoromethyl)phenyl-Substituted Pyrazole Derivatives as Potent Growth Inhibitors of Drug-Resistant Bacteria” (Molecules, 2021).
≈ marks a conversion by molar mass, not a printed value. Like-named read-outs stand apart in the source and are kept apart here.

Assays:
[1] = test system: Bacillus subtilis ATCC 6623 (Bs); experiment: MIC, microdilution (CLSI); format: cell-based; details: ATCC6623
Outline: (§1)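 Two-fold serial dilutions in cation-adjusted Mueller Hinton broth from 32 µg/mL starting concentration (DMSO stock). Incubation 18–20 h at 35 ℃; MIC is lowest concentration with no visible turbidity, from at least duplicate results across three independent experiments.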

[2] = test system: E. faecalis ATCC 29212 (Ef12); experiment: MIC, microdilution (CLSI); format: cell-based; details: Enterococcus faecalis, ATCC29212
Outline: as §1

[3] = test system: E. faecalis ATCC 51299 (Ef99); experiment: MIC, microdilution (CLSI); format: cell-based; details: Enterococcus faecalis, ATCC 51299 / VRE
Outline: as §1

[4] = test system: E. faecium ATCC 700221 (Ef21); experiment: MIC, microdilution (CLSI); format: cell-based; details: Enterococcus faecium, ATCC 700221 / VRE
Outline: as §1

[5] = test system: S. aureus ATCC 25923 (Sa23); experiment: MIC, microdilution (CLSI); format: cell-based; details: Staphylococcus aureus, ATCC25923
Outline: as §1

[6] = test system: S. aureus ATCC 33591 (Sa91); experiment: MIC, microdilution (CLSI); format: cell-based; details: Staphylococcus aureus, ATCC33591
Outline: as §1

[7] = test system: S. aureus ATCC 33592 (Sa92); experiment: MIC, microdilution (CLSI); format: cell-based; details: Staphylococcus aureus, ATCC33592
Outline: as §1

[8] = test system: S. aureus ATCC 700699 (Sa99); experiment: MIC, microdilution (CLSI); format: cell-based; details: Staphylococcus aureus, ATCC700699
Outline: as §1

[9] = test system: S. aureus BAA-2312 (Sa12); experiment: MIC, microdilution (CLSI); format: cell-based; details: Staphylococcus aureus, BAA2312
Outline: as §1

[10] = test system: S. epidermidis ATCC 700296 (Se); experiment: MIC, microdilution (CLSI); format: cell-based; details: Staphylococcus epidermidis, ATCC700296
Outline: as §1

[11] = test system: S. aureus strains; experiment: MIC against S. aureus strains; format: cell-based, Staphylococcus aureus
Protocol: (§2) Compounds were dissolved in dimethyl sulfoxide (DMSO) to achieve a starting concentration of 32 µg/mL as described by us previously. Compounds were further diluted two-fold across the 96-well honeycomb plate columns in cation adjusted Mueller Hinton broth (CAMHB), and bacterial culture was added. Plates were incubated for 18–20 h at 35 ℃ before determining the minimum concentrations at which wells had no visible turbidity to the naked eye. The MIC values were determined from at least a duplicate result obtained from three independent experiments using fresh bacterial cultures on different days.

[12] = test system: enterococci strains; experiment: MIC against enterococci strains; format: cell-based; details: tested enterococci strains
Protocol: as §2

[13] = test system: S. aureus biofilms (Sa23); experiment: Biofilm eradication (MBEC), Calgary Biofilm Device; format: cell-based, Staphylococcus aureus
Protocol: (§3) Minimum biofilm eradication concentration (MBEC) was determined using a Calgary device using the protocol reported elsewhere with some modifications. The Calgary device is a 96-well plate with a lid containing pegs to establish biofilms. Bacteria from an overnight plate culture were suspended to a 0.5 McFarland turbidity, then diluted 1:100 in a CAMHB containing 1% glucose which was inoculated in the 96 wells (150 μL in each well) and incubated at 35 °C for 24 h to establish biofilm on the pegs. The lid was then removed, washed with PBS in a fresh 96 well plate, then transferred to another 96-well plate containing 2-fold serial dilutions of the test compounds dissolved in PBS (150 μL total volume in each well). This plate was called the “challenge plate”. The challenge plate was incubated for an additional 24 h, and the lid was transferred to the next 96-well plate containing fresh CAMHB media with 1% glucose (180 μL) and further incubated for 24 h. […] All the compounds were tested in a minimum of three independent experiments.

[14] = test system: E. faecalis biofilms (Efs12); experiment: Biofilm eradication (MBEC), Calgary Biofilm Device; format: cell-based
Protocol: as §3

[15] = test system: MRSA (S. aureus ATCC 700699); experiment: Time Kill Assay; format: cell-based, Staphylococcus aureus; details: 4× MIC, positive controls
[16] = test system: S. aureus ATCC 700699 persisters; experiment: Persister viability assay; format: cell-based, Staphylococcus aureus; details: 32× MIC, 4 h, S. aureus ATCC 700699 persisters
Protocol: The persister assay was performed following the methodology described previously. Briefly, for persister viability assays, S. aureus ATCC 700699 strain (MRSA) was grown to stationary phase in CAMHB medium by shaking at 200 rpm in a shaking incubator for 24 h at 35 °C. […] After incubation, 400 µL aliquot was washed, serially diluted in PBS, and plated in blood agar plate for viable colony count.

[17] = Bs, Bacillus subtilis ATCC 6623, n = 3, read-out: MIC
[18] = Ef12, antibiotic susceptible E. faecalis ATCC 29212, n = 3, read-out: MIC
[19] = Ef99, vancomycin-resistant (VRE) E. faecalis ATCC 51299, n = 3, read-out: MIC
[20] = Ef21, vancomycin-resistant (VRE) E. faecium ATCC 700221, n = 3, read-out: MIC
[21] = Sa23, antibiotic susceptible S. aureus ATCC 25923, n = 3, read-out: MIC
[22] = Sa91, methicillin-resistant S. aureus ATCC 33591, n = 3, read-out: MIC
[23] = Sa92, methicillin-resistant S. aureus ATCC 33592, n = 3, read-out: MIC
[24] = Sa99, methicillin-resistant S. aureus ATCC 700699, n = 3, read-out: MIC
[25] = Sa12, methicillin-resistant S. aureus BAA-2312, n = 3, read-out: MIC
[26] = Se, S. epidermidis ATCC 700296, n = 3, read-out: MIC

Compound `O=C(O)c1ccc(-n2cc(CNc3ccc(Br)c(Cl)c3)c(-c3cc(C(F)(F)F)cc(C(F)(F)F)c3)n2)cc1` [Compound 21, 4-[3-[3,5-Bis(trifluoromethyl)phenyl]-4-[(4-bromo-3-chloro-anilino)methyl]pyrazol-1-yl] benzoic acid] has an MIC [1, 17] of 1 µg/mL (≈ 1.62 µM), an MIC [2, 18] of 1 µg/mL (≈ 1.62 µM) and an MIC [3, 19] of 1 µg/mL (≈ 1.62 µM). For the same compound, the MIC [4, 20] was 1 µg/mL (≈ 1.62 µM), the MIC [5, 21] was 1 µg/mL (≈ 1.62 µM) and the MIC [6, 22] was 0.5 µg/mL (≈ 0.808 µM). For the same compound, the MIC [7, 23] was 0.5 µg/mL (≈ 0.808 µM), the MIC [8, 24] was 2 µg/mL (≈ 3.23 µM) and the MIC [9, 25] was 1 µg/mL (≈ 1.62 µM). The MIC [10, 26] was 2 µg/mL (≈ 3.23 µM), the MIC ([11]; Staphylococcus aureus, S. aureus strains, including MRSA) was at least 0.5 µg/mL and the “times more effective than vancomycin and daptomycin” value ([11]; against S. aureus strains) was “up to 4 times”. It also gave an MIC [12] of 1 µg/mL (≈ 1.62 µM).
For `CCCCCCCCCC(=O)N[C@@H](Cc1c[nH]c2ccccc12)C(=O)N[C@H](CC(N)=O)C(=O)N[C@@H](CC(=O)O)C(=O)N[C@@H]1C(=O)NCC(=O)N[C@@H](CCCN)C(=O)N[C@@H](CC(=O)O)C(=O)N[C@H](C)C(=O)N[C@@H](CC(=O)O)C(=O)NCC(=O)N[C@H](CO)C(=O)N[C@@H]([C@H](C)CC(=O)O)C(=O)N[C@@H](CC(=O)c2ccccc2N)C(=O)O[C@@H]1C` [D, Daptomycin, reference compound], the MIC [1, 17] was 2 µg/mL (≈ 1.23 µM), the MIC [2, 18] was 16 µg/mL (≈ 9.87 µM) and the MIC [3, 19] was 16 µg/mL (≈ 9.87 µM). The MIC [4, 20] was 16 µg/mL (≈ 9.87 µM), the MIC [5, 21] was 2 µg/mL (≈ 1.23 µM) and the MIC [6, 22] was 2 µg/mL (≈ 1.23 µM). The MIC [7, 23] was 2 µg/mL (≈ 1.23 µM), the MIC [8, 24] was 8 µg/mL (≈ 4.94 µM) and the MIC [9, 25] was 2 µg/mL (≈ 1.23 µM). It also gave an MIC [10, 26] of 2 µg/mL (≈ 1.23 µM), an MBEC [13] of over 32 µg/mL and an MBEC [14] of over 32 µg/mL. For the same compound, the “time to eliminate >99.9% CFUs” value [15] was 6 h and the “activity against persisters” value [16] was “failed to demonstrate persister kill activity”.
`CN[C@H](CC(C)C)C(=O)N[C@H]1C(=O)N[C@@H](CC(N)=O)C(=O)N[C@H]2C(=O)N[C@H]3C(=O)N[C@H](C(=O)N[C@H](C(=O)O)c4cc(O)cc(O)c4-c4cc3ccc4O)[C@H](O)c3ccc(c(Cl)c3)Oc3cc2cc(c3O[C@@H]2O[C@H](CO)[C@@H](O)[C@H](O)[C@H]2O[C@H]2C[C@](C)(N)[C@H](O)[C@H](C)O2)Oc2ccc(cc2Cl)[C@H]1O` [V, Vancomycin, reference compound] was tested, and the MIC ([1]; Bacillus subtilis) was 0.25 µg/mL (≈ 0.173 µM), the MIC [2] was 2 µg/mL (≈ 1.38 µM) and the MIC [3] was over 32 µg/mL. The MIC [4] was over 32 µg/mL, the MIC [5] was 1 µg/mL (≈ 0.69 µM) and the MIC [6] was 2 µg/mL (≈ 1.38 µM). The MIC [7] was 2 µg/mL (≈ 1.38 µM), the MIC [8] was 4 µg/mL (≈ 2.76 µM) and the MIC [9] was 0.5 µg/mL (≈ 0.345 µM). For the same compound, the MIC [10] was 2 µg/mL (≈ 1.38 µM), the MBEC [13] was over 32 µg/mL and the MBEC [14] was over 32 µg/mL. For the same compound, the “time to eliminate >99.9% CFUs” value [15] was 8 h and the “activity against persisters” value [16] was “failed to demonstrate persister kill activity”.
